Marks after values point to notes of the source that are not given here.
How the values were obtained:
Assay type in all cases: physicochemical
[1] = Longitudinal relaxivity r1 and relaxivity vs pH profiles
Protocol: The longitudinal relaxivity values (r1) for GdL1 and GdL2, at 20 MHz (0.47 T), 298 K, and pH 7.4, are 4.7 and 5.1 mM^–1 s^–1, respectively. These are typical values of the clinical MRI contrast agents, i.e., low-molecular-weight q = 1 Gd^III chelates that tumble rapidly in solution.[1],[2] In particular, these values compare well with the r1 reported for GdHPDO3A[24] and other HPDO3A-like complexes such as GdHPDO3MA[25] or the series of Gd-hydroxypropylamide-DO3A (HPADO3A, Scheme 1)[7] complexes measured at the same experimental conditions.
At pH >3, the r1 values of GdL2 decrease with the increase of pH from 6.6 mM^–1 s^–1 to reach a plateau of 5.1 mM^–1 s^–1 around pH = 7.5. A further increase of the pH results in the slight increase of r1 reaching a maximum around pH = 9.5. Finally, at pH >9.5, another small decrease in r1 is observed. On the other hand, in the case of GdL1, the r1 values are independent from the pH in the range 4.0–7.5, whereas at pH >8.0, r1 increases up to 5.2 mM^–1 s^–1. The r1 values of GdL1 were measured in the pH range 4–10 in order to avoid the hydrolysis of the methyl ester. […] Then, the overall relaxivity, r1, is given by eq 1: [drawing 1] 1 where r1^is, r1^os, and r1^pr are the relaxivity components due to the inner and outersphere water molecules and the −OH group, respectively. r1^pr can be expressed as follows:[26]−[28] [drawing 2] 2
Proton relaxation measurements (1/T1) and the resulting 1/T1 NMRD profiles were measured on a fast-field cycling (FFC) Stelar SmarTracer relaxometer over a continuum of magnetic field strengths from 0.000 24 to 0.25 T (corresponding to 0.01–10 MHz proton Larmor frequencies). The relaxometer operates under computer control with an absolute uncertainty in 1/T1 of ±1%. […] Furthermore, the real temperature inside the probe head was additionally monitored by a Fluke 52 k/j digital thermometer (Fluke, Zürich, Switzerland). The gadolinium concentration was determined by measuring the bulk magnetic susceptibility shifts of the t-BuOH ^1H NMR signal. Additional data in the 20–120 MHz frequency range were obtained with a high field relaxometer (Stelar) equipped with the HTS-110 3T metrology cryogen-free superconducting magnet. […] The pH-dependent relaxivity measurements of GdL1 and GdL2 complexes were carried out by direct titration of the samples (GdL2, 3.0 < pH < 12.5; GdL1, 4 < pH < 10). The pH was adjusted by the stepwise addition of concentrated NaOH or HCl solution. Calculations were performed with the computer program Micromath Scientist, version 2.0 (Salt Lake City, UT).

[2] = Conditional stability constant pGd; settings: pGd = −log[Gd]free, [Gd^3+] = 1 μM, [L] = 10 μM, pH = 7.4; calculated from the constants
[3] = Stability and protonation constants of Ca^II complexes by pH potentiometry
Description: The metal complexes of biomedical interest must show a high in vivo stability, which includes high thermodynamic stability and kinetic inertness to allow targeting applications and to avoid possible toxic effects derived by metal ion and ligand release via transmetalation or transchelation reactions.[2],[3],[13] The protonation constants of L2 as well as the stability and the protonation constants of GdL2 and those of the most important endogenous divalent metal complexes (Ca^II-, Zn^II-, and Cu^II) were determined by pH potentiometry (Table 1 and Table S1). In the case of GdL1, we were interested in determining the dissociation constant of the hydroxyl group that was measured also by pH potentiometry (Table 1). […]
The stability and protonation constants of Ca^2+, Zn^2+, and Cu^2+ complexes formed with the […] ligand were determined by pH potentiometric titration. […] The protonation constants of the GdL1 and GdL2 complexes were determined using pH potentiometry by titrating the preprepared complexes from pH = 3.0 to pH = 12 for GdL2 and from pH = 4.0 to pH = 12 for GdL1 with 0.2 M NaOH. The stability constants of GdL2 were determined by the “out-of-cell” technique because of the slow formation reaction. The pH range of the complexation equilibria and the time needed to reach the equilibria were determined by relaxometry for the formation of GdL2. […]

Row | pGd [2] | CaHL (log K, protonation constant of the complex) ([3]; 0.15 M NaCl, 25 °C) | CaL (log K, stability constant) ([3]; I = 0.15 M NaCl, 298 K) | SMILES | longitudinal relaxivity r1 ([1]; 20 MHz (0.47 T), 298 K, pH 7.4) [mM^–1 s^–1] | r1 plateau ([1]; around pH = 7.5, 21 MHz, 298 K, 0.15 M NaCl) [mM^–1 s^–1] | relaxivity increase by acid-catalyzed proton exchange ([1]; pH <6) | r1 at the acidic start of the pH profile ([1]; pH about 3, 21 MHz, 298 K, 0.15 M NaCl) [mM^–1 s^–1]
1 | – | – | – | O=C([O-])CN1CCN(CC(=O)[O-])CCN(CC(O)C(=O)O)CCN(CC(=O)[O-])CC1.[Gd+3] (stereo not shown) [GdL2] | 5.1 | 5.1 | ca. 30% | 6.6
2 | 16.87 ^h | 5.20 (5) | 11.63 (1) | O=C(O)CN1CCN(CC(=O)O)CCN(C[C@@H](O)C(=O)O)CCN(CC(=O)O)CC1 [L2, (R)2,2′,2″-(10-(2-Carboxy-2-hydroxyethyl)-1,4,7,10-tetraazacyclododecane-1,4,7-triyl) Triacetic Acid] | – | – | – | –

From PMC8769378, “Underlining the Importance of Peripheral Protic Functional Groups to Enhance the Proton Exchange of Gd-Based MRI Contrast Agents” (Inorganic Chemistry, 2021)
